Assay results taken from PMC7795518, “Insights into the Interaction of LVV-Hemorphin-7 with Angiotensin II Type 1 Receptor” (International Journal of Molecular Sciences, 2020).

How the values were obtained:
dopamine 1 receptor = conditions: allosteric modulator binding preferentially to ICL2; cited from earlier work
Text: Positive allosteric binding sites of GPCRs have been identified in the past. However, recent studies have […] the potential of positive allosteric modulators in multiple GPCRs using in vitro and in silico approaches. Allosteric binding sites located near the extracellular (EC) face and IC face in different GPCRs have been documented. Allosteric sites near the orthosteric site in GPCRs often block the entry of other ligands. However, this would not be a problem for allosteric ligands that target the IC region. DETQ, an al ...

[1] = target: T1, AngII type 1 receptor (AT1R) (Homo sapiens, UniProt P30556); experiment: Saturation NanoBRET binding of BODIPY-AngII to Nluc-AT1R in live HEK293FT cells
T1 construct: host or cells: HEK293FT
T1 sequence (P30556 1-359): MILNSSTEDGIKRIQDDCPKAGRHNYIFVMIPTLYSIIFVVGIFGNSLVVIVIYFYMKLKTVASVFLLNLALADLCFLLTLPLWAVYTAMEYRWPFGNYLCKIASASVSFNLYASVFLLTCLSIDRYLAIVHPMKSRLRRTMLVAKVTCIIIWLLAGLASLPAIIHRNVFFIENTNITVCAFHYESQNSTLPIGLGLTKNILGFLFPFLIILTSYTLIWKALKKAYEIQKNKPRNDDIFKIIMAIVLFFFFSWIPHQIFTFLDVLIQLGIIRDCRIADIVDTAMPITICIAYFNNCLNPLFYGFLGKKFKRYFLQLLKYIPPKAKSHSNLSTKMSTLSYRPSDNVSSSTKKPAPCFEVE
Description: Figure 1 Saturation binding of BODIPY-angiotensin II (AngII) to AngII type 1 receptor (AT1R) using NanoBRET assay in live HEK293FT cells. HEK293FT cells transiently expressing Nluc-AT1R (NanoBRET donor) were first treated with 10 μM LVV-H7 or vehicle (A) or 1 μM olmesartan medoxomil or vehicle (B) for 20 min at 37 °C. […] Data are mean ± SEM of four (A) or three (B) independent experiments performed in duplicate.
(A) HEK293FT cells transiently expressing Nluc-AT1R (NanoBRET donor) were first treated with 1 μM olmesartan medoxomil or vehicle and then immediately treated with 0, 10, or 100 μM LVV-H7. […] Specific binding curves were generated by subtracting olmesartan medoxomil-treated wells from vehicle-treated wells for each concentration of LVV-H7.
(§1) The NanoLuc-AT1R coding plasmid (Promega, Madison, WI, USA) was used for its transient expression in HEK293FT cells as previously reported.
(§2) Human embryonic kidney (HEK) 293FT cells (Thermo Fisher Scientific) were cultured and maintained at 37 °C, 5% CO2 in complete medium (Dulbecco’s modified Eagle’s medium (DMEM) containing 0.3 mg/mL glutamine, 100 IU/mL penicillin, and 100 μg/mL streptomycin) supplemented with 10% fetal calf serum (FCS) (Bovogen Biologicals, Victoria, Australia) and 400 μg/mL Geneticin (Thermo Fisher Scientific). Transient transfections were carried out 24 h after seeding 600,000 cells/well of a 6-well plate. FuGENE 6 (Promega) transfection reagent was used according to the manufacturer’s instructions. Cells were harvested with 0.05% Trypsin-EDTA 24 h after transfection and seeded into poly-L-lysine (Sigma Aldrich) coated white 96-well plates (Greiner Bio-One, Frickenhausen, Germany) at 80,000 cells/well in phenol red-free DMEM containing 25 mM HEPES, 0.3 mg/mL glutamine, 100 IU/mL penicillin, and 100 μg/mL streptomycin supplemented with 5% FCS.
The NanoLuc substrate furimazine (Promega) was then added to a final concentration of 10 μM and light emission was measured at 37 °C using the filters 450 nm (80-nm bandpass) and >610 nm (longpass) on the LUMIstar or CLARIOstar multilabel plate reader (BMG Labtech (Australia), Mornington, VIC, Australia).
The NanoBRET ratios were determined by dividing the >610 nm (longpass) emission by 450 nm (80-nm bandpass) emission and subtracting the background ratio. Then, the percentage of NanoBRET signals were calculated as described in figure legends. The saturation and kinetic curves were fitted with the appropriate nonlinear regression equations using GraphPad Prism software (San Diego, CA, USA). Statistical analyses were performed with paired one-way ANOVA or paired t-tests as appropriate to determine statistical significance between the different conditions. **** p-value < 0.0001, *** p-value < 0.001, ** p-value < 0.01, * p-value < 0.05, and ns p-value > 0.05.

AT1R = conditions: HEK293 cells; Gαq/inositol phosphate pathway and ERK1/2 phosphorylation; cited from earlier work
Text: Hemorphins are endogenous hemoglobin-derived peptides implicated in numerous physiological and pathophysiological situations including spatial learning, inflammation, analgesia, and transient hypotension. The molecular targets of hemorphins comprise the cell-surface G protein-coupled receptor (GPCR) members such as the opioid receptors and also the membrane AngIV receptor [3, 8]. Moreover, hemorphins are also known for their inhibitory effects on the angiotensin-converting enzyme (ACE), a key enzyme in the renin–angiotensin system (RAS). ...

[2] = target: T1, AngII type 1 receptor (AT1R); experiment: Real-time NanoBRET kinetics of BODIPY-AngII binding to Nluc-AT1R in live HEK293FT cells; conditions: 10 μM LVV-H7, 30 min pre-incubation, 100 nM BODIPY-AngII
Description: as §1, §2
The NanoBRET ratios were determined by dividing the >610 nm (longpass) emission by 450 nm (80-nm bandpass) emission and subtracting the background ratio. Then, the percentage of NanoBRET signals were calculated as described in figure legends. […]

Molecule: C[C@H]1c2cccc(C(C)(C)O)c2C[C@H](CO)N1C(=O)Cc1c(Cl)cccc1Cl [DETQ]
- effect on potency of dopamine (dopamine 1 receptor): significantly enhanced the potency of dopamine

Molecule: CCCc1nc(C(C)(C)O)c(C(=O)OCc2oc(=O)oc2C)n1Cc1ccc(-c2ccccc2-c2nnn[nH]2)cc1 [olmesartan medoxomil, reference compound]
- displacement of BODIPY-AngII binding ([1]; 1 μM olmesartan medoxomil, 20 min at 37 °C before BODIPY-AngII 40 min, three independent experiments in duplicate): ~ 75%

Molecule: LVVYPWTQRF [LVV-H7, LVV-hemorphin-7, decapeptide LVV-hemorphin-7 ([…]) (New England Peptide)]
- modulation of AT1R activity and downstream signaling (AT1R): positive modulation of its activity and downstream signaling pathways in HEK293 cells
- effect on maximal binding of BODIPY-AngII (kinetics) ([2]; n = 4, p < 0.05): significantly increased the maximal binding of BODIPY-AngII
- effect on binding rate (T1/2) of BODIPY-AngII ([2]; n = 4, p > 0.05): no effect on the binding rate
- competition for binding with BODIPY-AngII ([1]; 10 μM LVV-H7, 20 min at 37 °C before BODIPY-AngII 40 min, four independent experiments in duplicate): did not compete for binding with BODIPY-AngII
- effect on maximum binding (Bmax) of BODIPY-AngII ([1]; LVV-H7 0, 10, 100 μM, saturation binding, n = 6): without altering the maximum binding
- decrease of AngII's kD ([1]; NanoBRET in HEK293FT cells, effect of LVV-H7): 2.6 fold
- effect on binding of BODIPY-AngII ([1]; increasing LVV-H7 (0, 10, 100 μM), n = 6): significantly potentiated the binding of BODIPY-AngII
